Results on 1 compound are retold here after publication PMC11173382, “In Vitro Investigations into the Potential Drug Interactions of Pseudoginsenoside DQ Mediated by Cytochrome P450 and Human Drug Transporters” (Molecules, 2024).

For orientation: IC50 means the concentration needed to halve the response being measured. Lower therefore signals greater potency in that assay.

Holding throughout (assay type): in vitro ADME
Series [1] concerns the target T1, CYP2C8 (Homo sapiens, UniProt P10632).
T1 sequence (P10632 1-490): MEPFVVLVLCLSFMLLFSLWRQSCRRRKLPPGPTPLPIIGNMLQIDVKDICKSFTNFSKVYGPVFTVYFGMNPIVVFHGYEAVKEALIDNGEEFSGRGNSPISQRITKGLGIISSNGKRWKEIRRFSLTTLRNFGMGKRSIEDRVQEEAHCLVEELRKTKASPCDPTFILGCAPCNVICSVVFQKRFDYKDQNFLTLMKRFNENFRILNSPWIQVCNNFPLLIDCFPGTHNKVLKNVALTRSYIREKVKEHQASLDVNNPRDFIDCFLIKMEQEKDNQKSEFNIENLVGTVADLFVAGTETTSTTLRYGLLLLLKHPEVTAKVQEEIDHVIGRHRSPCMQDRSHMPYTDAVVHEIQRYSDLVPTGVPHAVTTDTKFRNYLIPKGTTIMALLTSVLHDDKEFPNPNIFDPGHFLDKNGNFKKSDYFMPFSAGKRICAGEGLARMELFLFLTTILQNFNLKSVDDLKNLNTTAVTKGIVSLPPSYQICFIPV
As to the kind of experiment: CYP450 inhibition assay in human liver microsomes, CYP2C8. The conditions noted are these: HLM 0.1 mg/mL; probe amodiaquine 2 µM; 10 min. The protocol:
(§1) To evaluate the reliability and reproducibility of the CYP450 inhibition assay, we measured the inhibitory effects of selected positive control inhibitors of each CYP450 enzyme in human liver microsomes (HLM, Table 1, Figure 2). The potency of inhibition was estimated by observing the alteration in concentration of metabolites of CYP450 substrates (Table 1).
(§2) Reagents preparation. […] The stock solution of PDQ (10 mM) was prepared with methanol and further diluted to the range of 3 µM to 3 mM with methanol to ensure that the solvent of different PDQ samples contained the same amount (1%) of methanol.
(§3) The stock solutions of the positive control inhibitors and the probe substrates of CYP450 enzymes were prepared in methanol.
(§4) CYP450 inhibition assay. […] The assay was conducted in polypropylene 96-well plates (2.2 mL/well, Apricot Designs Inc., Covina, CA, USA).
(§5) The total volume of the reaction is 200 μL. […] The substrates and analytes were analyzed by LC-MS/MS (API4000, Applied Biosystems, Singapore; HPLC, Shimadzu, Japan). […]
(§6) Data analysis. […] The IC50 was determined by fitting the dependence of the relative remaining activity (y = Vi/V0) to the following three-parameter equation (Equation (1)). […]

In series [2] the target is T2, CYP2D6 (Homo sapiens, UniProt P10635).
T2 construct: tissue Corning 452117; host or cells: human liver microsomes
As to the kind of experiment: CYP450 inhibition assay in human liver microsomes, CYP2D6. The conditions noted are these: HLM 0.1 mg/mL; probe dextromethorphan 10 µM; 20 min. The protocol: as §1, §2, §3, §4, §5, §6
A general note: Liver microsomes are a subcellular fraction often used to study metabolism.

The target of series [3] is T3, CYP1A2 (Homo sapiens, UniProt P05177).
T3 construct: tissue Corning 452117; host or cells: human liver microsomes
T3 sequence (P05177 1-516): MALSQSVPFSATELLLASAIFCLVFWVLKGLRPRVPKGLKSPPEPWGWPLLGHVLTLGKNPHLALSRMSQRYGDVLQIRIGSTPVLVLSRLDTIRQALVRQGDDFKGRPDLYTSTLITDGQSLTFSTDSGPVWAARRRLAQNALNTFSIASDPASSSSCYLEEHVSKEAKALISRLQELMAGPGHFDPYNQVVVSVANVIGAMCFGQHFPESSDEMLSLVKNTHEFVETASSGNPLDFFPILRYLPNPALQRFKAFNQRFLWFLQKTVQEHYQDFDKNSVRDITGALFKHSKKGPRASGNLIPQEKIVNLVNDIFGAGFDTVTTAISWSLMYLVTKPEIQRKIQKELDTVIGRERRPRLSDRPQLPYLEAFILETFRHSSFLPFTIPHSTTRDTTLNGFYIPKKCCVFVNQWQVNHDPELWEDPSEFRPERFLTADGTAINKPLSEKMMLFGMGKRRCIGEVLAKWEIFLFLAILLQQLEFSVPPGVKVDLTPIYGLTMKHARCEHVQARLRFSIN
The experiment in a line: CYP450 inhibition assay in human liver microsomes, CYP1A2. Here is the method: as §1, §2, §3, §4
The total volume of the reaction is 200 μL. The HLM mixtures (102 μL) containing individual probe substrates (Table 3), KH2PO4 buffer (100 mM, pH 7.4), and either PDQ or the positive control inhibitors (Table 3) were incubated for 10 min at 37 °C in a shaking incubator. Reactions were initiated by adding 98 μL NADPH (final concentration is 1.3 mM NADPH, 3 mM MgCl2 in 100 mM KH2PO4 buffer). The HLM reaction mixtures were shaken at 37 °C for various times (Table 4). The reaction time of CYP3A4 (midazolam), CYP2C19 and CYP2D6 were 3, 20 and 20 min, respectively, while the reactions of other CYP enzymes were terminated after 10 min. The reactions were quenched by adding 200 μL acetonitrile containing 3% formic acid and specific internal standards (Table 4). After shaking at 1000 rpm for 10 min, the reaction mixtures were centrifuged at 4000 rpm for 20 min. Supernatants were diluted with ultrapure water (Table 4) and shaken for 10 min at 1000 rpm. […] The substrates and analytes were analyzed by LC-MS/MS (API4000, Applied Biosystems, Singapore; HPLC, Shimadzu, Japan). […]
as §6

T2 sequence (P10635 whole entry): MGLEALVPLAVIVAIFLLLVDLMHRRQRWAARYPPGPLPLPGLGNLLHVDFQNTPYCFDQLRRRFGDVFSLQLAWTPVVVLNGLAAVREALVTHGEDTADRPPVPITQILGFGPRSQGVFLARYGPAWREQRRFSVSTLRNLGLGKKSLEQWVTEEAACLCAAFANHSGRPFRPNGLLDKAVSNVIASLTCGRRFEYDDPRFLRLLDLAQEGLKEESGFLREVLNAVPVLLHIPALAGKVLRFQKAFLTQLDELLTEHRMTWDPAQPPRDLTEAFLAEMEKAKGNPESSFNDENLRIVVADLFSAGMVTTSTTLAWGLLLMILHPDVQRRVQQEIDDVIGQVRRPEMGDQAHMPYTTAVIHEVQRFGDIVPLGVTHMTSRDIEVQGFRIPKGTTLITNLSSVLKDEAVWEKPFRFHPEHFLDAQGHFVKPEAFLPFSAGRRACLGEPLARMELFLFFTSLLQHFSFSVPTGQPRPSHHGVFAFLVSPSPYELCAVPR

As to `CC(C)(O)[C@@H]1CC[C@@](C)([C@H]2CC[C@]3(C)[C@@H]2[C@H](O)C[C@@H]2[C@@]4(C)CC[C@H](O)C(C)(C)[C@@H]4CC[C@]23C)O1` [PDQ, (20S,24S)-dammar-20,24-epoxy-3β, 12β, 25-triol], the IC50 is 16.4 µM in series [1]; 52 µM in series [2]; more than 100 µM in series [3] (HLM 0.1 mg/mL, probe phenacetin 75 µM, 10 min). Moreover, in series [3] (PDQ within the range of 0.03 to 30.0 μM, HLM), the “effect on CYP1A2-catalyzed de-ethylation” value is reported as “activated”. Moreover, the “percentage mean control activity of CYP1A2” value in series [3] (highest tested dose of PDQ (100 μM), HLM) was found to be 100.8%.
